Assay results: ChEMBL document CHEMBL4507291 (2021)

Experiments:
[1] = target: Neuropeptide Y receptor type 2 (Homo sapiens) (UniProt P49146); experiment: Inhibition of Neuropeptide Y Y2 at 10 µM in the Eurofins-Panlabs radioligand binding assay (Eurofins_assay_257110); conditions: Compound concentration 10.0 uM
[2] = target: High affinity choline transporter 1 (Homo sapiens) (UniProt Q9GZV3); experiment: Transporter, Choline Eurofins-Panlabs radioligand binding assay; set-up: ligand concentration 0.75 nM; conditions: Rattus norvegicus; Compound concentration 10.0 uM
Chain of High affinity choline transporter 1 (Homo sapiens) (Q9GZV3 whole entry): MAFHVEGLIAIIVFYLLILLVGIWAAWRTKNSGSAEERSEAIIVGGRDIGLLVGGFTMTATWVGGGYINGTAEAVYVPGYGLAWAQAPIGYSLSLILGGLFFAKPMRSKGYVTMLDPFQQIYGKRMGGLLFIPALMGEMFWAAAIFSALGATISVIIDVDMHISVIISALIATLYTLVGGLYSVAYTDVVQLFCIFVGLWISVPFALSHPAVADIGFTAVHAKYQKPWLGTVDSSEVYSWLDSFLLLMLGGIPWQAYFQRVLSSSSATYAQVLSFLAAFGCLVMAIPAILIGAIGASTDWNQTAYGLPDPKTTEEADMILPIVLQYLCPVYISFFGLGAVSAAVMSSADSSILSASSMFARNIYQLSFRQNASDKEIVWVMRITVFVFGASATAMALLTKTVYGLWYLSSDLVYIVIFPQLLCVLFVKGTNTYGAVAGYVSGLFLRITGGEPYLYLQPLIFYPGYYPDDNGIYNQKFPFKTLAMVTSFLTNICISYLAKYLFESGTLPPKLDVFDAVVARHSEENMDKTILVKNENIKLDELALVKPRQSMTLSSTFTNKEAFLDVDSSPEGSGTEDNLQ

[3] = target: Protein kinase C delta type (Homo sapiens) (UniProt Q05655); experiment: PRKCD (PKC delta) Kinase screen; conditions: Compound concentration 1.0 uM
Chain of Protein kinase C delta type (Homo sapiens) (Q05655 whole entry, looked up): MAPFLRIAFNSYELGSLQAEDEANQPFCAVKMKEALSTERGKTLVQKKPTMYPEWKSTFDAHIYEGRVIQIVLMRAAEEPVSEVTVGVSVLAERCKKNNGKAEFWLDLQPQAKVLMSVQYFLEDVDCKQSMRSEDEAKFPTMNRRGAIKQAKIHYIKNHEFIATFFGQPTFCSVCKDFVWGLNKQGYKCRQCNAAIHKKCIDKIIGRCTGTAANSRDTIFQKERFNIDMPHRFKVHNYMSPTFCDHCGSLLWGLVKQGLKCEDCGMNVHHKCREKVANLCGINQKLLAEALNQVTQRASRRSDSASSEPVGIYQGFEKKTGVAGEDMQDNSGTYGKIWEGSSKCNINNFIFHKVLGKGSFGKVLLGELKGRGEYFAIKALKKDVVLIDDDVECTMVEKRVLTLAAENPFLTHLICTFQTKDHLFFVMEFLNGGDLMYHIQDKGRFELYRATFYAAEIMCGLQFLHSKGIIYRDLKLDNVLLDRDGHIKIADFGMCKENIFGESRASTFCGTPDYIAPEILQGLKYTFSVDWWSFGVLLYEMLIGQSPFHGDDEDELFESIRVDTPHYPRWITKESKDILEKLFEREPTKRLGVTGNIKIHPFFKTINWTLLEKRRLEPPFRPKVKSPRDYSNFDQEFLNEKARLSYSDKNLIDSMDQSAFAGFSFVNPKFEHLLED

[4] = target: Mast/stem cell growth factor receptor Kit (Homo sapiens) (UniProt P10721); experiment: KIT Kinase screen; conditions: Compound concentration 1.0 uM
[5] = target: Activin receptor type-2B (Homo sapiens) (UniProt Q13705); experiment: ACVR2B Kinase screen; conditions: Compound concentration 1.0 uM
[6] = target: Vascular endothelial growth factor receptor 3 (Homo sapiens) (UniProt P35916); experiment: FLT4 (VEGFR3) Kinase screen; conditions: Compound concentration 1.0 uM
[7] = target: Phosphatidylinositol 4-phosphate 3-kinase C2 domain-containing subunit beta (Homo sapiens) (UniProt O00750); experiment: PIK3C2B (PI3K-C2 beta) Kinase screen; conditions: Compound concentration 1.0 uM
[8] = target: DNA-dependent protein kinase catalytic subunit (Homo sapiens) (UniProt P78527); experiment: DNA-PK Kinase screen; conditions: Compound concentration 1.0 uM
[9] = target: Mitogen-activated protein kinase 10 (Homo sapiens) (UniProt P53779); experiment: MAPK10 (JNK3) Kinase screen; conditions: Compound concentration 1.0 uM
[10] = target: 5-hydroxytryptamine receptor 1B (Homo sapiens) (UniProt P28222); experiment: Inhibition of Serotonin (5-Hydroxytryptamine) 5-HT1B at 10 µM in the Eurofins-Panlabs radioligand binding assay (Eurofins_assay_271200); conditions: Compound concentration 10.0 uM
Chain of 5-hydroxytryptamine receptor 1B (Homo sapiens) (P28222 whole entry): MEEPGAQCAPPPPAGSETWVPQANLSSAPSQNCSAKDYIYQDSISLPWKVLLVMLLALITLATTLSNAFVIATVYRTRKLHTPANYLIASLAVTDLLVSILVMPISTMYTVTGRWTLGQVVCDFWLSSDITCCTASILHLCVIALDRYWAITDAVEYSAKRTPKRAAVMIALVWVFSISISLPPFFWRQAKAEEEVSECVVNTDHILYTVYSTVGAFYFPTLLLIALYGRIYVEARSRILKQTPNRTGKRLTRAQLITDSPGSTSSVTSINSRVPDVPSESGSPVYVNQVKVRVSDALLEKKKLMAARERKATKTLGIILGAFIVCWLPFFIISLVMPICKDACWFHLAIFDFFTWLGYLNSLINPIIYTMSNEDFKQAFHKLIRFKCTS

[11] = target: Cannabinoid receptor 2 (Homo sapiens) (UniProt P34972)
Chain of Cannabinoid receptor 2 (Homo sapiens) (P34972 whole entry): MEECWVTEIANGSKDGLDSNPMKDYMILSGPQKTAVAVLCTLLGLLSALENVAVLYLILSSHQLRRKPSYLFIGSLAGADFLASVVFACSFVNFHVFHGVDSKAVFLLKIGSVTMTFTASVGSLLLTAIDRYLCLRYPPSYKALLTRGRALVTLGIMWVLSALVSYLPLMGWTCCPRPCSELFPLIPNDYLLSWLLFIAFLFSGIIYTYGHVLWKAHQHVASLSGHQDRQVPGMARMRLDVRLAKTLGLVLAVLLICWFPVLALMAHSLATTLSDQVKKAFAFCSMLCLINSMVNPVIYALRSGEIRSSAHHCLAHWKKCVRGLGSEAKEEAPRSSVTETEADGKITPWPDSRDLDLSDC

[12] = organism: Rattus norvegicus; experiment: Protein Serine/Threonine Kinase, PKC, Non-Selective Eurofins-Panlabs enzyme assay; conditions: Compound concentration 10.0 uM
[13] = target: Neurotensin receptor type 1 (Homo sapiens) (UniProt P30989); experiment: Neurotensin NT1 Eurofins-Panlabs radioligand binding assay; set-up: ligand concentration 0.02 nM, non-specific ligand with concentration 1 µM Neurotensin, incubation time 45 min, incubation temperature 25 °C; conditions: Compound concentration 10.0 uM
[14] = target: Phosphatidylinositol 4-kinase alpha (Homo sapiens) (UniProt P42356); experiment: PI4KA (PI4K alpha) Kinase screen; conditions: Compound concentration 1.0 uM
[15] = target: T1, Muscle, skeletal receptor tyrosine-protein kinase (Homo sapiens) (UniProt O15146); experiment: MUSK Kinase screen; conditions: Compound concentration 1.0 uM
T1 sequence (whole entry): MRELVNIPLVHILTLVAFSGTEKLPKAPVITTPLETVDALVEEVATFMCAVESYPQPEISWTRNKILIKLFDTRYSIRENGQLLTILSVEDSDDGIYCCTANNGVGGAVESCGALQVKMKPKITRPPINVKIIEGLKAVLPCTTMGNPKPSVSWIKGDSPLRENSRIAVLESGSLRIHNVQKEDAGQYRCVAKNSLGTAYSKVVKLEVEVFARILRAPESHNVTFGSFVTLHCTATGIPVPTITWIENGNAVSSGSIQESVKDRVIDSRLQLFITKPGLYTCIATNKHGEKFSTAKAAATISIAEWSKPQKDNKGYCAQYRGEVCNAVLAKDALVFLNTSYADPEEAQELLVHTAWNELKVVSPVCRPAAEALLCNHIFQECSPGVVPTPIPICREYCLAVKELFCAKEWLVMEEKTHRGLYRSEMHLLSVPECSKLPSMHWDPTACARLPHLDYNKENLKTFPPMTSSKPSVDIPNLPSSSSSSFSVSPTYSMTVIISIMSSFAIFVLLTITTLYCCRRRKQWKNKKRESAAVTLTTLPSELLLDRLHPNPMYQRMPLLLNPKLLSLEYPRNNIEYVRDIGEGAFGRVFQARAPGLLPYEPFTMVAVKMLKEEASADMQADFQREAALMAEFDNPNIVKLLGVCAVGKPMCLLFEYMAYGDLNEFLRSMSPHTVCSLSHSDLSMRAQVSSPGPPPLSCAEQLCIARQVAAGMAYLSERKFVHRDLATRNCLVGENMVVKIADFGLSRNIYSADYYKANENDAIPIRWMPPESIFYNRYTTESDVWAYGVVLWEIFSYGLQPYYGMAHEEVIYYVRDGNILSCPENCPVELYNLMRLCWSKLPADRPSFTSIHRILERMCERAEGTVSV

[16] = target: Rho-associated protein kinase 2 (Homo sapiens) (UniProt O75116); experiment: ROCK2 Kinase screen; conditions: Compound concentration 1.0 uM
[17] = target: 3-phosphoinositide-dependent protein kinase 1 (PDPK1) (Homo sapiens) (UniProt O15530); experiment: PDK1 Kinase screen; conditions: Compound concentration 1.0 uM
Chain of 3-phosphoinositide-dependent protein kinase 1 (PDPK1) (Homo sapiens) (O15530 whole entry, looked up): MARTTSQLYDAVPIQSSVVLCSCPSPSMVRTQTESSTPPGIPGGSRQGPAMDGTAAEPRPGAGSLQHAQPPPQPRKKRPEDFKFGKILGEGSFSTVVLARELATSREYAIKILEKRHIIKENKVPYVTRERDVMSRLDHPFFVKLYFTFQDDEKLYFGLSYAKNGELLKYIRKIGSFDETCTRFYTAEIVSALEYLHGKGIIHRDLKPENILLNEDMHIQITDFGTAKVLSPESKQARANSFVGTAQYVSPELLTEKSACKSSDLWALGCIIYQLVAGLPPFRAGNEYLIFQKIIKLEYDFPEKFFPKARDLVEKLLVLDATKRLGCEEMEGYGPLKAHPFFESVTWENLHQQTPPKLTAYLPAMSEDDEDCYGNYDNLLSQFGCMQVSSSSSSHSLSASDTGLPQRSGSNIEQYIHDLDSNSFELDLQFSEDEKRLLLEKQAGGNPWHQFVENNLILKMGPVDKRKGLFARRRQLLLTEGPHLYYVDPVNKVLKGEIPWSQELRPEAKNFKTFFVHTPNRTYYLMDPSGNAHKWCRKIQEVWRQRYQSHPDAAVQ

[18] = target: Sodium-dependent noradrenaline transporter (Homo sapiens, UniProt P23975)
Chain of Sodium-dependent noradrenaline transporter (P23975 whole entry): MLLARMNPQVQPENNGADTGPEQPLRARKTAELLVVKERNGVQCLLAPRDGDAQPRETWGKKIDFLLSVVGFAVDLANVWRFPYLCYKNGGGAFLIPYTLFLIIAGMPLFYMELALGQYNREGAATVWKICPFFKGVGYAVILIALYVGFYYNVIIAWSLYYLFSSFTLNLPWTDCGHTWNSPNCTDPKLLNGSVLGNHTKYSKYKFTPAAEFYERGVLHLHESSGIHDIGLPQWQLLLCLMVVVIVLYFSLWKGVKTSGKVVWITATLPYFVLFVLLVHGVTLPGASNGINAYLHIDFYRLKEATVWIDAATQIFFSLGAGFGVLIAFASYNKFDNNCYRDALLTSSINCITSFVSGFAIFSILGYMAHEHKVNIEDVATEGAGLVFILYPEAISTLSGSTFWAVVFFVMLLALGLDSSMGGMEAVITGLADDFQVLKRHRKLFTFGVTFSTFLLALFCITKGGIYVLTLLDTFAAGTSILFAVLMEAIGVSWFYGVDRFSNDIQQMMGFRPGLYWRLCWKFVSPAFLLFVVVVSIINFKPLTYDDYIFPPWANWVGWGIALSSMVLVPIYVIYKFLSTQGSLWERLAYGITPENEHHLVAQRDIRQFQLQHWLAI

[19] = target: Estrogen receptor (Homo sapiens) (UniProt P03372); conditions: Compound concentration 10.0 uM
[20] = target: Insulin receptor (Homo sapiens) (UniProt P06213); experiment: INSR Kinase screen; conditions: Compound concentration 1.0 uM
Chain of Insulin receptor (Homo sapiens) (P06213 28-758 limits assumed): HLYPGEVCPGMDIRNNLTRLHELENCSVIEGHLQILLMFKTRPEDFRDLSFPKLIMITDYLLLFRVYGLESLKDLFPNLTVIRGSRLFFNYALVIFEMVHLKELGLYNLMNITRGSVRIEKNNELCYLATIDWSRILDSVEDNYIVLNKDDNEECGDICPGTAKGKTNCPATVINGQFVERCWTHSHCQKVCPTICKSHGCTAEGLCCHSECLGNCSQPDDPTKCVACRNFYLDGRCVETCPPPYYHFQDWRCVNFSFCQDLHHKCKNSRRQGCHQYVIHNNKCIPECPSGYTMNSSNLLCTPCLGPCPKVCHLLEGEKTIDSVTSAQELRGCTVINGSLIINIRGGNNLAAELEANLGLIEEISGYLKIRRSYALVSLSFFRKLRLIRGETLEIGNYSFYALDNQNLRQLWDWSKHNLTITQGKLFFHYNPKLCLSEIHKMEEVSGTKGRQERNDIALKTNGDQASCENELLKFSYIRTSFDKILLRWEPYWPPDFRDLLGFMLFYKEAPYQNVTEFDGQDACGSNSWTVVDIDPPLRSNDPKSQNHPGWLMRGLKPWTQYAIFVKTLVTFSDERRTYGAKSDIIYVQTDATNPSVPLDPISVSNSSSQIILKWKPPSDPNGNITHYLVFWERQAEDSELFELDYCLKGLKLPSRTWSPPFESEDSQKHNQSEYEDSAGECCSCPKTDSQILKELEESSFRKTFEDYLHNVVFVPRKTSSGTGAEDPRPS
Chain of Insulin receptor (Homo sapiens) (P06213 763-1382 limits assumed): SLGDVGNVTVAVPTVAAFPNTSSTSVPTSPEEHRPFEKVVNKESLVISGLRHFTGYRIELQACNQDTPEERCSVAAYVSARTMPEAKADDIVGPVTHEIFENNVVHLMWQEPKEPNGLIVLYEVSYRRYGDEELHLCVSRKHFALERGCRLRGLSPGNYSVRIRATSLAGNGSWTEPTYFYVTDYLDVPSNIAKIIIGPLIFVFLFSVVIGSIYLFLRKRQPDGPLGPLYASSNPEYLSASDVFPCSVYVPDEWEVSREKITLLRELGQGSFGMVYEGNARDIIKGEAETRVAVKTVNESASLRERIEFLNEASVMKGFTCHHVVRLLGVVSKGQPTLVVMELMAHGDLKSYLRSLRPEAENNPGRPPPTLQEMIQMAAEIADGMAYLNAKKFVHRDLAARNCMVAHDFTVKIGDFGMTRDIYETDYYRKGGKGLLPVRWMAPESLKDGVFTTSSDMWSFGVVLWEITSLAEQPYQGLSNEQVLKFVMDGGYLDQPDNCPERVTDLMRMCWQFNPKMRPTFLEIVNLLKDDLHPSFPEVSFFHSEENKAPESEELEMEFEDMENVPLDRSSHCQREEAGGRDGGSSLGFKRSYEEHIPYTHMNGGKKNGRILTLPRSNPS

[21] = target: Glycogen synthase kinase-3 beta (Homo sapiens) (UniProt P49841); experiment: GSK3B (GSK3 beta) Kinase screen; conditions: Compound concentration 1.0 uM
[22] = target: Tyrosine-protein kinase Fyn (Homo sapiens) (UniProt P06241); experiment: FYN Kinase screen; conditions: Compound concentration 1.0 uM
[23] = target: T2, cAMP-dependent protein kinase catalytic subunit PRKX (Homo sapiens) (UniProt P51817); experiment: PRKX Kinase screen; conditions: Compound concentration 1.0 uM
T2 sequence (whole entry): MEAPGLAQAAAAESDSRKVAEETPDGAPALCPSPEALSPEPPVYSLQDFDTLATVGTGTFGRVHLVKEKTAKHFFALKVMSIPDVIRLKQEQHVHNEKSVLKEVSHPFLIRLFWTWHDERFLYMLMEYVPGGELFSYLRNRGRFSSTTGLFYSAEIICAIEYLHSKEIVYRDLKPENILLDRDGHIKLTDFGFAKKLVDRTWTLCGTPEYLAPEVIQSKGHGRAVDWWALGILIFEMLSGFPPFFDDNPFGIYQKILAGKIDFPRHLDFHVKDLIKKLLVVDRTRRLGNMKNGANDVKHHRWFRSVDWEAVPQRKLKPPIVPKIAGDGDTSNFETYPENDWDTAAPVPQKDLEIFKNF

Chain of Neuropeptide Y receptor type 2 (Homo sapiens) (P49146 whole entry): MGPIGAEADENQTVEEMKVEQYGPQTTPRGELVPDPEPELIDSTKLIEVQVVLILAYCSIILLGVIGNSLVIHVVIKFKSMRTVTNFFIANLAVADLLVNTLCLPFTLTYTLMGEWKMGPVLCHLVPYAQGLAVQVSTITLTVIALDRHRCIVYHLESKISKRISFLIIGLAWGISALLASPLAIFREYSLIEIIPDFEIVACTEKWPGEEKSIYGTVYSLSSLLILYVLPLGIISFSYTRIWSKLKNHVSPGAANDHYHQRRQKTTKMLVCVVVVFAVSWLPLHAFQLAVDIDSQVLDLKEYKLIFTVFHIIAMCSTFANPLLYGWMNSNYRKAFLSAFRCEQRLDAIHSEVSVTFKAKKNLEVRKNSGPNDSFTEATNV

Work on C[C@@H]1CN(c2cc(-c3n[nH]c4ccc(OC5(C)CC5)cc34)ncn2)C[C@H](C)O1 [MLi-2] yielded an inhibition [1] of 1%, an inhibition [2] of 18% and an inhibition [3] of 3.65%. The inhibition [4] was 5.52%, the inhibition [5] was -1.21% and the inhibition [6] was 8.71%. For the same compound, the inhibition [7] was -3.26%, the inhibition [8] was 21.6% and the inhibition [9] was 13.6%. For the same compound, the inhibition [10] was 0%, the inhibition ([11]; Compound concentration 3.0 uM) was 2% and the inhibition ([11]; Compound concentration 10.0 uM) was 2%. It also gave an inhibition [12] of 26%, an inhibition [13] of -2% and an inhibition [14] of 5.35%. It also gave an inhibition [15] of -0.0337%, an inhibition [16] of 10.2% and an inhibition [17] of 13.6%. For the same compound, the inhibition ([18]; Compound concentration 0.01 uM) was 6%, the inhibition ([18]; Compound concentration 0.1 uM) was 8% and the inhibition ([18]; Compound concentration 1.0 uM) was 15%. For the same compound, the inhibition ([18]; Compound concentration 10.0 uM) was 77%, the inhibition [19] was 8% and the inhibition [20] was -0.884%. For the same compound, the inhibition [21] was 3.53%, the inhibition [22] was 11.2% and the inhibition [23] was 1.54%.
